Results from patent US20040229816A1, “Anti-angiogenic and anti-tumoral properties of beta and gamma secretase inhibitors” (priority 2003, published 2004).
Entries after “also recorded” stand apart in the source; their conditions may differ. Read-outs that look alike come from different tables or passages of the source. Peptide text beside a SMILES is read from it. * marks the point of attachment. Cbz = O=C(OCc1ccccc1)*

Tests used:
APP [1] = test: carboxyl-terminal APP fragments in human brain endothelial cell lysates (immunoblotting); assay type: cell-based; conditions: 5 μM, 24 hours
Procedure: (§1) Confluent human brain endothelial cells (grown on 75 cm2 flasks with EBM 4% FBS medium) were treated for 24 hours with 5 μM of Z-VVL-CHO, 5 μM of L-685,458, 5 μM of OM99-2, 5 AM of DAPT or went untreated (control). Experiments were done in quadriplicate for each treatment condition. 6E10 (Signet), a mAb that recognizes residues 1-17 of human Aβ (Van Nostrand et al., Nature, 341, 546-549, 1989) was used to immunoprecipitate soluble APP generated following cleavage by α-secretase from cell culture medium. Immunoprecipitated material was resolved on a 4-20% gradient SDS-PAGE, transferred to PVDF membranes and immunodetected with mAb 22C11 (Roche Diagnostics) that recognizes the amino acids 66-81 of the N-terminal portion of APP (Hibich, C., J. Biol. Chem., 268, 26571-26577, 1993). Human brain endothelial cells were lysed on ice using MPERTM reagent (Pierce) supplemented with 1 mM PMSF and 1 mM of sodium-orthovanadate. Samples were sonicated and centrifuged at 10,000 g for 30 min at 4° C. The protein content of the lysates was determined using the BCA Protein assay kit (Pierce). Total lysates ([…] of protein/sample) were separated on a 4-20% gradient SDS-PAGE and transferred to PVDF membranes and immunoprobed with mAb 22C11 in order to detect full length APP and also immunoprobed with an Anti-APP-CT20 (Calbiochem) antibody which recognizes the amino acid residues 751-770 of the carboxyl terminal region of APP (Pinnix et al. 2001; J. Biol. Chem., 276, 481).

[2] = test system: U-87 MG brain tumor cells; test: proliferation of U-87 MG brain tumor cells; assay type: cell-based, human
[3] = test system: Human middle cerebral artery endothelial cells; test: capillary morphogenesis assay; assay type: cell-based
Procedure: Two hundred μl of Matrigel were placed into each well of a 24-well culture plate at 4° C. and allowed to polymerize by incubation at 37° C. Human middle cerebral artery endothelial cells (5×104) were seeded on the Matrigel in 1 ml of EBM containing 4% fetal calf serum. The cells were incubated at 37° C. for 20 hours in a humidified 5% CO2 atmosphere in the presence or absence of various doses of γ-secretase and β-secretase inhibitors as indicated in the figure legends. The experiments were performed in quadruplicate for each treatment condition. For each culture, 2 randomly chosen fields were photographed using a 4×objective. An experimenter unaware of the different treatments measured the total length of tube structures in each photograph using the Image Pro Plus software (Media Cybernetic, Inc., Md.). Capillary network lengths for the different treatment conditions were expressed as the percentage of capillary network lengths obtained in the control condition.

APP [4] = test: α-sAPP secretion by human brain endothelial cells (immunoprecipitation, immunoblotting); assay type: cell-based; conditions: 5 μM, 24 hours
Procedure: as §1

β-secretase = target: T1, β-secretase (Cricetulus griseus, UniProt G3IAK4); conditions: Chinese hamster ovary cells, wild-type APP751, cited from earlier work
T1 construct: endogenous in cells; host or cells: Chinese hamster ovary cells stably transfected with wild-type APP751
T1 sequence (G3IAK4 22-501): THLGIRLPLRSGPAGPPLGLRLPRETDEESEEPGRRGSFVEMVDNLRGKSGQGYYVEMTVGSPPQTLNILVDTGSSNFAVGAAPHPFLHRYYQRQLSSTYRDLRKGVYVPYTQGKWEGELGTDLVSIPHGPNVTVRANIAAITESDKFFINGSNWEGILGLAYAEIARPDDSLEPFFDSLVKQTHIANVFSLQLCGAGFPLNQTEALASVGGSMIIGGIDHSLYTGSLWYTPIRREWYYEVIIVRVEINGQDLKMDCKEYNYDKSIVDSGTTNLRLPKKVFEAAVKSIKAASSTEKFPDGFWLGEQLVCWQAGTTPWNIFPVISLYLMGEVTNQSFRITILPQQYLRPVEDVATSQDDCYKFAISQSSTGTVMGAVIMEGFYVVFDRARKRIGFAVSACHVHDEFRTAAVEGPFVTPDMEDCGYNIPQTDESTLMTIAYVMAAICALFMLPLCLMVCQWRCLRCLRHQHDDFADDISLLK

Row | SMILES | accumulation of carboxyl-terminal APP fragments (APP CTF) (APP [1]) | proliferation of U-87 MG brain tumor cells [2] | tumoricidal activity [2] | formation of capillary structures, overall [3] | secretion of α-sAPP (APP [4]) | secretion of α-sAPP (APP [4]; listed as Z-VVL-CHO) | IC50 (β-secretase; read-out: formation of Aβ42, IC50) | IC50 (β-secretase; read-out: formation of Aβtotal, IC50)
1 | C[C@H](NC(=O)Cc1cc(F)cc(F)c1)C(=O)N[C@H](C(=O)OC(C)(C)C)c1ccccc1 [DAPT, N-[N-(3,5-difluorophenacetyl-L-alanyl)]-S-phenylglycine t-butyl ester] | stimulates; also recorded: promoted the accumulation | dose dependently inhibited the proliferation | did not display tumoricidal activity |  |  |  |  | 
2 | CC(C)C[C@@H](C=O)NC(=O)[C@H](CC(C)C)NC(=O)[C@@H](NC(=O)OCc1ccccc1)C(C)C [Z-VLL-CHO, N-benzyloxycarbony-val-leu-leucinal] (Cbz-Val-Leu-Leu-aldehyde) |  | dose dependently inhibited the proliferation | did not display tumoricidal activity | profoundly anti-angiogenic | stimulated | significantly inceases | 2500 nM | 700 nM
